Assay [1] has as its target T1, WRN [UniPro: Q14191 (WRN_HUMAN), N500-C946] (Homo sapiens (Human), UniProt Q14191). The assay can be described thus: WRN ATPase assay (ADP-Glo). As to conditions: WRN enzymatic activity assay. Format: biochemical. In general terms: In ADP-Glo the light output rises with the ADP produced.
Assay [2] has as its target T1, WRN [UniPro: Q14191 (WRN_HUMAN), N500-C946]. The assay can be described thus: WRN unwinding assay (FORKF DNA, fluorescence). As to conditions: Table 14. Format: biochemical.

From patent US20260015358A1, “BICYCLIC DERIVATIVES, COMPOSITIONS AND USES THEREOF” (Danatlas Pharmaceuticals Co., Ltd., priority 2023, published 2026) come the findings set out here.

T1 sequence (Q14191 500-946): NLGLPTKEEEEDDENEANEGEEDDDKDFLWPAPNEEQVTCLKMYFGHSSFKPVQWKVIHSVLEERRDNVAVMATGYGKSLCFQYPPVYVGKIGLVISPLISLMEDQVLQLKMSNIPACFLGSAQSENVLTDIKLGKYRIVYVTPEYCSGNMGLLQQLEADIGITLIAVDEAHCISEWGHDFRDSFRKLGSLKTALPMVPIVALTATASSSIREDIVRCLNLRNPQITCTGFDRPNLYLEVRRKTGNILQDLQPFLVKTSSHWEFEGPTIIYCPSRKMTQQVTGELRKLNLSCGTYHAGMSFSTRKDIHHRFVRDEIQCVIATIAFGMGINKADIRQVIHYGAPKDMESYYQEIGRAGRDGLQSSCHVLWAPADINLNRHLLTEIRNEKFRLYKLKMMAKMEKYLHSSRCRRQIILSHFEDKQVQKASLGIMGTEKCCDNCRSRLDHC

One may read the IC50 as the midpoint of a concentration-inhibition curve. Read a high IC50 as lower potency. Take `CCc1c(N2CCN(C(=O)c3cnn4cccc4c3O)CC2)c(=O)n2nc(C3=CCOCC3)nc2n1CC(=O)Nc1sc(C)cc1C` [Example 298, 2-(2-(3,6-Dihydro-2H-pyran-4-yl)-5-ethyl-6-(4-(4-hydroxypyrrolo[1,2-b]pyridazine-3-carbonyl)piperazin-1-yl)-7-oxo-[1,2,4]triazolo[1,5-a]pyrimidin-4(7H)-yl)-N-(3,5-dimethylthiophen-2-yl)acetamide]: the IC50 in assay [1] and in assay [2] was less than 100 nM in each case.

`CCc1c(N2CCN(C(=O)c3[nH]cnc3F)CC2)c(=O)n2nc(C3=CCOCC3)nc2n1CC(=O)Nc1ccc(C(F)(F)F)cc1Cl` [Example 299, N-(2-Chloro-4-(trifluoromethyl)phenyl)-2-(2-(3,6-dihydro-2H-pyran-4-yl)-5-ethyl-6-(4-(4-fluoro-1H-imidazole-5-carbonyl)piperazin-1-yl)-7-oxo-[1,2,4]triazolo[1,5-a]pyrimidin-4(7H)-yl)acetamide]: the IC50 in assay [1] and in assay [2] was 100 to 1000 nM each time.

For the compound `CCc1c(N2CCN(C(=O)c3[nH]c4ccncc4c3F)CC2)c(=O)n2nc(C3=CCOCC3)nc2n1CC(=O)Nc1ccc(C(F)(F)F)cc1Cl` [Example 300, N-(2-Chloro-4-(trifluoromethyl)phenyl)-2-(2-(3,6-dihydro-2H-pyran-4-yl)-5-ethyl-6-(4-(3-fluoro-1H-pyrrolo[3,2-c]pyridine-2-carbonyl)piperazin-1-yl)-7-oxo-[1,2,4]triazolo[1,5-a]pyrimidin-4(7H)-yl)acetamide], the IC50 in assay [1] and in assay [2] was 100 to 1000 nM in each case.

Regarding `CCc1c(N2CCN(C(=O)CNC(=O)c3nc(C)co3)CC2)c(=O)n2nc(C3=CCOCC3)nc2n1CC(=O)Nc1ccc(C(F)(F)F)cc1Cl` [Example 301, N-(2-(4-(4-(2-((2-Chloro-4-(trifluoromethyl)phenyl)amino)-2-oxoethyl)-2-(3,6-dihydro-2H-pyran-4-yl)-5-ethyl-7-oxo-4,7-dihydro-[1,2,4]triazolo[1,5-a]pyrimidin-6-yl)piperazin-1-yl)-2-oxoethyl)-4-methyloxazole-2-carboxamide], the IC50 in assay [1] and in assay [2] was 100 to 1000 nM throughout.

`CCc1c(N2CCN(C(=O)c3cnn4ccc(C)c4c3O)CC2)c(=O)n2nc(C3=CCOCC3)nc2n1CC(=O)Nc1ccc(C(F)(F)F)cc1Cl` [Example 303, N-(2-Chloro-4-(trifluoromethyl)phenyl)-2-(2-(3,6-dihydro-2H-pyran-4-yl)-5-ethyl-6-(4-(4-hydroxy-5-methylpyrrolo[1,2-b]pyridazine-3-carbonyl)piperazin-1-yl)-7-oxo-[1,2,4]triazolo[1,5-a]pyrimidin-4(7H)-yl)acetamide]: the IC50 in assay [1] and in assay [2] was less than 100 nM each time.

On to `CCc1c(N2CCN(C(=O)c3c(O)nn4ccccc34)CC2)c(=O)n2nc(C3=CCOCC3)nc2n1CC(=O)Nc1ccc(C(F)(F)F)cc1Cl` [Example 304, N-(2-Chloro-4-(trifluoromethyl)phenyl)-2-(2-(3,6-dihydro-2H-pyran-4-yl)-5-ethyl-6-(4-(2-hydroxypyrazolo[1,5-a]pyridine-3-carbonyl)piperazin-1-yl)-7-oxo-[1,2,4]triazolo[1,5-a]pyrimidin-4(7H)-yl) acetamide], for which the IC50 in assay [1] and in assay [2] was less than 100 nM throughout.

For `CCc1c(N2CCN(C(=O)c3nc4ccsc4cc3O)CC2)c(=O)n2nc(C3=CCOCC3)nc2n1CC(=O)Nc1ccc(C(F)(F)F)cc1Cl` [Example 305, N-(2-Chloro-4-(trifluoromethyl)phenyl)-2-(2-(3,6-dihydro-2H-pyran-4-yl)-5-ethyl-6-(4-(6-hydroxythieno[3,2-b]pyridine-5-carbonyl)piperazin-1-yl)-7-oxo-[1,2,4]triazolo[1,5-a]pyrimidin-4(7H)-yl)acetamide], the IC50 in assay [1] and in assay [2] was less than 100 nM each time.

In the case of `CCc1c(N2CCN(C(=O)c3nc4ccccc4cc3O)CC2)c(=O)n2nc(C3=CCOCC3)nc2n1CC(=O)Nc1ccc(C(F)(F)F)cc1Cl` [Example 306, N-(2-Chloro-4-(trifluoromethyl)phenyl)-2-(2-(3,6-dihydro-2H-pyran-4-yl)-5-ethyl-6-(4-(3-hydroxyquinoline-2-carbonyl)piperazin-1-yl)-7-oxo-[1,2,4]triazolo[1,5-a]pyrimidin-4(7H)-yl)acetamide], the IC50 in assay [1] and in assay [2] was less than 100 nM in each case.

Turning to `CCc1c(N2CCN(C(=O)c3nc4ccccc4cc3N)CC2)c(=O)n2nc(C3=CCOCC3)nc2n1CC(=O)Nc1ccc(C(F)(F)F)cc1Cl` [Example 307, 2-(6-(4-(3-Aminoquinoline-2-carbonyl)piperazin-1-yl)-2-(3,6-dihydro-2H-pyran-4-yl)-5-ethyl-7-oxo-[1,2,4]triazolo[1,5-a]pyrimidin-4(7H)-yl)-N-(2-chloro-4 (trifluoromethyl)phenyl)acetamide], the IC50 was 100 to 1000 nM in assay [1] and less than 100 nM in assay [2].

In the case of `CCc1c(N2CCN(C(=O)c3cnc4sc(Cl)nc4c3O)CC2)c(=O)n2nc(C3=CCOCC3)nc2n1CC(=O)Nc1ccc(C(F)(F)F)cc1F` [Example 308, 2-(6-(4-(2-Chloro-7-hydroxythiazolo[5,4-b]pyridine-6-carbonyl)piperazin-1-yl)-2-(3,6-dihydro-2H-pyran-4-yl)-5-ethyl-7-oxo-[1,2,4]triazolo[1,5-a]pyrimidin-4(7H)-yl)-N-(2-fluoro-4-(trifluoromethyl)phenyl)acetamide], the IC50 in assay [1] and in assay [2] was less than 100 nM throughout.

With `CCc1c(N2CCN(C(=O)c3nnc(C(F)F)[nH]3)CC2)c(=O)n2nc(C3=CCOCC3)nc2n1CC(=O)Nc1ccc(C(F)(F)F)cc1F` [Example 310, 2-(6-(4-(5-(Difluoromethyl)-4H-1,2,4-triazole-3-carbonyl)piperazin-1-yl)-2-(3,6-dihydro-2H-pyran-4-yl)-5-ethyl-7-oxo-[1,2,4]triazolo[1,5-a]pyrimidin-4(7H)-yl)-N-(2-fluoro-4-(trifluoromethyl)phenyl)acetamide], the IC50 in assay [1] and in assay [2] was less than 100 nM throughout.

With `CCc1c(N2CCN(C(=O)c3nnc(C(F)(F)F)[nH]3)CC2)c(=O)n2nc(C3=CCOCC3)nc2n1CC(=O)Nc1ccc(C(F)(F)F)cc1F` [Example 311, 2-(2-(3,6-Dihydro-2H-pyran-4-yl)-5-ethyl-7-oxo-6-(4-(5-(trifluoromethyl)-4H-1,2,4-triazole-3-carbonyl)piperazin-1-yl)-[1,2,4]triazolo[1,5-a]pyrimidin-4(7H)-yl)-N-(2-fluoro-4-(trifluoromethyl)phenyl)acetamide], the IC50 in assay [1] and in assay [2] was less than 100 nM in each case.

With `CCc1c(N2CCN(C(=O)c3nnc(C)[nH]3)CC2)c(=O)n2nc(C3=CCOCC3)nc2n1CC(=O)Nc1ccc(C(F)(F)F)cc1F` [Example 312, 2-(2-(3,6-Dihydro-2H-pyran-4-yl)-5-ethyl-6-(4-(5-methyl-4H-1,2,4-triazole-3-carbonyl)piperazin-1-yl)-7-oxo-[1,2,4]triazolo[1,5-a]pyrimidin-4(7H)-yl)-N-(2-fluoro-4-(trifluoromethyl)phenyl)acetamide], the IC50 in assay [1] and in assay [2] was 100 to 1000 nM each time.

For `CCc1c(N2CCN(C(=O)c3cc4cnccc4[nH]3)CC2)c(=O)n2nc(C3=CCOCC3)nc2n1CC(=O)Nc1ccc(C(F)(F)F)cc1Cl` [Example 313, 2-(6-(4-(1H-Pyrrolo[3,2-c]pyridine-2-carbonyl)piperazin-1-yl)-2-(3,6-dihydro-2H-pyran-4-yl)-5-ethyl-7-oxo-[1,2,4]triazolo[1,5-a]pyrimidin-4(7H)-yl)-N-(2-chloro-4-(trifluoromethyl)phenyl)acetamide], the IC50 in assay [1] and in assay [2] was 100 to 1000 nM throughout.

Take `CCc1c(N2CCN(C(=O)c3c(OC)cn[nH]c3=O)CC2)c(=O)n2nc(C3=CCOCC3)nc2n1CC(=O)Nc1ccc(C(F)(F)F)cc1Cl` [Example 314, N-(2-Chloro-4-(trifluoromethyl)phenyl)-2-(2-(3,6-dihydro-2H-pyran-4-yl)-5-ethyl-6-(4-(3-hydroxy-5-methoxypyridazine-4-carbonyl)piperazin-1-yl)-7-oxo-[1,2,4]triazolo[1,5-a]pyrimidin-4(7H)-yl)acetamide]: the IC50 in assay [1] is 100 to 1000 nM; in assay [2] it was greater than 1000 nM.

`CCc1c(N2CCN(C(=O)c3cnn4cccc4c3O)CC2)c(=O)n2nc(C3=CCOCC3)nc2n1CC(=O)Nc1ccc(C(F)(F)F)cc1F` [Example 318, 2-(2-(3,6-Dihydro-2H-pyran-4-yl)-5-ethyl-6-(4-(4-hydroxypyrrolo[1,2-b]pyridazine-3-carbonyl)piperazin-1-yl)-7-oxo-[1,2,4]triazolo[1,5-a]pyrimidin-4(7H)-yl)-N-(2-fluoro-4-(trifluoromethyl)phenyl)acetamide]: the IC50 in assay [1] and in assay [2] was less than 100 nM throughout.

Regarding `CCc1c(N2CCN(C(=O)CNC(=O)c3c(F)cccc3Cl)CC2)c(=O)n2nc(C3=CCOCC3)nc2n1CC(=O)Nc1ccc(C(F)(F)F)cc1Cl` [Example 319, 2-Chloro-N-(2-(4-(4-(2-((2-chloro-4-(trifluoromethyl)phenyl)amino)-2-oxoethyl)-2-(3,6-dihydro-2H-pyran-4-yl)-5-ethyl-7-oxo-4,7-dihydro-[1,2,4]triazolo[1,5-a]pyrimidin-6-yl)piperazin-1-yl)-2-oxoethyl)-6-fluorobenzamide], the IC50 in assay [1] and in assay [2] was less than 100 nM each time.

As for `CCc1c(N2CCN(C(=O)CNC(=O)CC(C)C)CC2)c(=O)n2nc(C3=CCOCC3)nc2n1CC(=O)Nc1ccc(C(F)(F)F)cc1Cl` [Example 320, N-(2-(4-(4-(2-((2-Chloro-4-(Trifluoromethyl)phenyl)amino)-2-oxoethyl)-2-(3,6-dihydro-2H-pyran-4-yl)-5-ethyl-7-oxo-4,7-dihydro-[1,2,4]triazolo[1,5-a]pyrimidin-6-yl)piperazin-1-yl)-2-oxoethyl)-3-methylbutanamide], the IC50 in assay [1] and in assay [2] was less than 100 nM each time.
